According to patent US20150118315A1, “AROMATIC-CATIONIC PEPTIDES AND USES OF SAME” (Stealth Peptides International, Inc., priority 2011, published 2015):

Legend:
[1] = Blood levels of salmon calcitonin after injection into duodenum, ileum or colon; type: in vivo; settings: rat, other: injected directly into the duodenum, active components injected directly into the duodenum
From the text: The pH-lowering agent is believed to lower the local pH (where the active agent has been released) to levels below the optimal range for many intestinal proteases. This decrease in pH reduces the proteolytic activity of the intestinal proteases, thus affording protection to the peptide from potential degradation should the peptide be present within the intestine. The activity of these proteases is diminished by the temporarily acidic environment as discussed herein. For example, sufficient acid should be provided that local intestinal pH is lowered temporarily to 5.5 or below, 4.7 or below, or 3.5 or below. The sodium bicarbonate test described below (in the section captioned “the pH-Lowering Agent”) is indicative of the required acid amount. […] The absorption enhancers of the present formulations synergistically promote peptide absorption into the blood while conditions of reduced proteolytic activity prevail. The mechanism by which the present formulations are believed to accomplish the goal of enhanced bioavailability is aided by having active components of the finished pharmaceutical product released together as simultaneously as possible.
The acid is believed to lower the local intestinal pH, where the aromatic-cationic peptide has been released, to levels below the optimal range for many intestinal proteases and other intestinal enzymes. […]

[2] = dog, in vivo
Description: A second series of tests will be carried out, as noted above, using beagle dogs. […] In the experiments, size 00 HPLC capsules will be filled with 758 mg of a powdered blend consisting of citric acid (643 mg), lauroyl carnitine (66 mg), talc (33 mg), salmon calcitonin (sCT) (13 mg) and aromatic-cationic peptide (2.4 mg). Half of the capsules will be coated with an enteric coating solution of L30D-55, while the remaining 50% of the capsules will not be coated. Four fasted dogs will be each given 1 uncoated capsule, and 2 weeks later they will be each given an enteric coated capsule. […] The plasma samples will be subsequently analyzed for sCT by a direct ELISA, and for aromatic-cationic peptide by HPLC-mass spectrometry performed as set forth in Wan, H. and Desiderio, D., Quantitation of dmt-DALDA in ovine plasma by on-line liquid chromatography/quadrapole time-of-flight mass spectrometry, Rapid Communications in Mass Spectrometry, 2003; 17, 538-546, the contents of which are incorporated herein by reference.
The results will be summarized as plasma peptide concentration normalized to a 1 mg dose as a function of time relative to the average Tmax, (i.e., the time at which the maximum amount of peptide is detected). The results are expected to indicate that both peptides, i.e., sCT and aromatic-cationic peptide, are detected in dogs given uncoated or enteric coated capsules.

- Tmax [1]: 5 to 15 min
- amount detected in plasma, enteric coated vs non-coated capsules [2]: nearly eight times
Structure (SMILES): CC(C)C[C@H](NC(=O)[C@H](CCCCN)NC(=O)CNC(=O)[C@H](CC(C)C)NC(=O)[C@@H](NC(=O)[C@@H]1CSSC[C@H](N)C(=O)N[C@@H](CO)C(=O)N[C@@H](CC(N)=O)C(=O)N[C@@H](CC(C)C)C(=O)N[C@@H](CO)C(=O)N[C@@H]([C@@H](C)O)C(=O)N1)C(C)C)C(=O)N[C@@H](CO)C(=O)N[C@@H](CCC(N)=O)C(=O)N[C@@H](CCC(=O)O)C(=O)N[C@@H](CC(C)C)C(=O)N[C@@H](Cc1c[nH]cn1)C(=O)N[C@@H](CCCCN)C(=O)N[C@@H](CC(C)C)C(=O)N[C@@H](CCC(N)=O)C(=O)N[C@H](C(=O)N[C@@H](Cc1ccc(O)cc1)C(=O)N1CCC[C@H]1C(=O)N[C@@H](CCCNC(=N)N)C(=O)N[C@H](C(=O)N[C@@H](CC(N)=O)C(=O)N[C@H](C(=O)NCC(=O)N[C@@H](CO)C(=O)NCC(=O)N[C@H](C(=O)N1CCC[C@H]1C(N)=O)[C@@H](C)O)[C@@H](C)O)[C@@H](C)O)[C@@H](C)O [salmon calcitonin]
